19 compounds from ChEMBL document CHEMBL2176884, “ATP-binding site of bacterial enzymes as a target for antibacterial drug design” (J Med Chem, 2011) can be followed below.

Assay [1] in a line: Inhibition of DNA gyrase.
The target in assay [2] is T1, Virulence sensor histidine kinase PhoQ (Salmonella typhimurium (strain LT2 / SGSC1412 / ATCC 700720), UniProt P0DM80).
T1 sequence (P0DM80 whole entry): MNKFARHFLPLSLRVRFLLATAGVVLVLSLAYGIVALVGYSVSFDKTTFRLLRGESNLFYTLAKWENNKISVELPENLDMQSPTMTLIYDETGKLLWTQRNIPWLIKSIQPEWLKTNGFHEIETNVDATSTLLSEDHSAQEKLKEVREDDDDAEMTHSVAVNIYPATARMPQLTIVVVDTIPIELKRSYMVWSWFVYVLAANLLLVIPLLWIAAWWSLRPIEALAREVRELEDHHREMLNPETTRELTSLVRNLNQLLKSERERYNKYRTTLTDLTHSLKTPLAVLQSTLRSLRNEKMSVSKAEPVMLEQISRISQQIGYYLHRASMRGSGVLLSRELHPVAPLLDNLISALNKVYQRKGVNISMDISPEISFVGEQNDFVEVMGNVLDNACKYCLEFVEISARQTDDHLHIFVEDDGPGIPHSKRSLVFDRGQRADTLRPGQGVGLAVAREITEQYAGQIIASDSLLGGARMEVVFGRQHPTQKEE
Kind of assay: Inhibition of Salmonella typhimurium sensor kinase PhoQ. More on the design: species or system Salmonella enterica subsp. enterica serovar Typhimurium.

A short description of assay [3]: Inhibition of Saccharomyces cerevisiae Hsp90.
Assay [4] is described as follows: Inhibition of Saccharomyces cerevisiae sensor kinase Sln1.
Assay [5] deals with T2, Pantothenate synthetase (Mycobacterium tuberculosis, UniProt P9WIL5).
T2 sequence (P9WIL5 whole entry): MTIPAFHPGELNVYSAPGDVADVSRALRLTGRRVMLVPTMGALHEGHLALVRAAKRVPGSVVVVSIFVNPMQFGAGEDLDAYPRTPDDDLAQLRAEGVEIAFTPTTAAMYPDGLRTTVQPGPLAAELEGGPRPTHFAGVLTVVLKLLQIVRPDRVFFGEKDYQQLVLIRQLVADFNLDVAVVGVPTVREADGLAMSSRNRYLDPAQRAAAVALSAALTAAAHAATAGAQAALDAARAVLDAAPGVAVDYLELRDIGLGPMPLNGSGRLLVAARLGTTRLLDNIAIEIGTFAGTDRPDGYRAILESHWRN
Kind of assay: Inhibition of Mycobacterium tuberculosis Pantothenate synthetase.

The nature of assay [6]: Inhibition of Escherichia coli His6-tagged ParC/ParE expressed in baculovirus-infected Sf9 cells by gel electrophoresis.
Assay [7] is described as follows: Inhibition of EnvZ by strand-transfer assay.
Assay [8] is described as follows: Inhibition of Staphylococcus sp. APH(3')-3a.
Assay [9] deals with T2, Pantothenate synthetase. Kind of assay: Binding affinity to Mycobacterium tuberculosis Pantothenate synthetase.
The next assay relates to Staphylococcus sp. Kind of assay: Antimicrobial activity against Staphylococcus. It is filed as functional.
The subject of the next assay is Enterococcus sp. Kind of assay: Antimicrobial activity against Enterococcus. The format is functional.
A short description of assay [10]: Inhibition of Escherichia coli ACCase.
The subject of another assay is Haemophilus influenzae. Kind of assay: Antimicrobial activity against Haemophilus influenzae after broth microdilution method. The format is functional. A general note: In broth dilution the organism is exposed to a series of concentrations in liquid medium.
Assay [11] is described as follows: Inhibition of bacteria biotin carboxylase.

Molecules are shown by their SMILES. Values after ≈ are worked out from the molar mass of the structure shown.

Regarding `Cc1cc(=O)oc2cc(SCc3n[nH]c4cccc(OCc5ccc(C(C)(C)C)cc5)c34)ccc12`, the MNEC in assay [1] was found to be 0.03 µg/mL.

In general, Kd refers to the concentration at which binding is half-saturated. What is called IC50 is the concentration that inhibits the measured activity by half. Lower therefore signals inhibition by little substance. For the compound `C[C@@H]1C[C@H]2O[C@@H]2/C=C\C=C\C(=O)Cc2c(Cl)c(O)cc(O)c2C(=O)O1` [RADICICOL], the dissociation constant (Kd) is 715 µM in assay [2] and 19 nM in assay [3]. This compound also gave an IC50 in assay [4] of 127 µM.

What is called Ki is a measure of affinity in units of concentration, obtained from inhibition or displacement. Read a high Ki as a looser hold on the target. The compound `CC(C)(C)C(=O)C(=O)NS(=O)(=O)OC[C@H]1O[C@@H](n2cnc3c(N)ncnc32)[C@H](O)[C@@H]1O` returned a Ki at Pantothenate synthetase [5] of 300 nM.

Consider `CO[C@@H]1[C@@H](OC(N)=O)[C@@H](O)[C@H](Oc2ccc3c(O)c(NC(=O)c4ccc(O)c(CC=C(C)C)c4)c(=O)oc3c2C)OC1(C)C` [NOVOBIOCIN], for which the half-maximal inhibitory concentration (IC50) in assay [6] is 210 nM. This compound also registered an equilibrium dissociation constant (Kd) in assay [7] of 120 µM.

With `CC(C)(C)[C@@H](N)C(=O)NS(=O)(=O)OC[C@H]1O[C@@H](n2cnc3c(N)ncnc32)[C@H](O)[C@@H]1O`, on Pantothenate synthetase [5], the Ki was 300 nM. This lies in the sub-micromolar range.

In the case of `C[C@H]1CNCCN1S(=O)(=O)c1cccc2cnccc12`, the Ki in assay [8] amounted to 49 µM. That is a double-digit micromolar value.

Turning to `NCCNS(=O)(=O)c1ccc(Cl)c2ccncc12`, the Ki in assay [8] was 49 µM.

Regarding `COc1ccc2c(c1)cc(CNC(=O)c1cc3ccccc3o1)n2CC(=O)O`, the Kd on Pantothenate synthetase [9] was 0.86 µM.

As for `COC(=O)C1CCCC(NCc2n[nH]c3cccc(OCc4cc(Cl)cc(Cl)c4)c23)C1` (stereo unspecified), the MIC in the assay with Staphylococcus sp. and in the assay on Enterococcus sp. was 4 µg/mL (≈ 8.65 µM) throughout. In addition, in assay [1], the IC50 stood at 0.25 µg/mL (≈ 0.541 µM).

`COc1ccc2c(c1)cc(C)n2CC(=O)O` yielded a Kd at Pantothenate synthetase [9] of 800 µM.

On Pantothenate synthetase [5], `COCC(C)(C)C(O)C(=O)NS(=O)(=O)OC[C@H]1O[C@@H](n2cnc3c(N)ncnc32)[C@H](O)[C@@H]1O` (stereo partly specified) showed a Ki of 300 nM.

In [8], `O=S(=O)(c1ccc(Cl)c2ccncc12)N1CCNCC1` returned a Ki of 49 µM.

As to `COCCC(O)C(=O)NS(=O)(=O)OC[C@H]1O[C@@H](n2cnc3c(N)ncnc32)[C@H](O)[C@@H]1O` (stereo partly specified), the Ki on Pantothenate synthetase [5] stood at 300 nM.

In the case of `COc1cccc(OC)c1-c1cc2cnc(N)nc2nc1N`, the IC50 in assay [10] worked out at 28 nM. For the same compound, the MIC in the assay on Haemophilus influenzae stood at 0.125 µg/mL (≈ 0.42 µM).

As for `N=C(N)NCCNS(=O)(=O)c1cccc2cnccc12`, the Ki in assay [8] is 49 µM. That is a double-digit micromolar value.

On to `Nc1ncc2cc(-c3c(Br)cccc3Br)c(N)nc2n1`, for which, in [10], the IC50 was under 5 nM. The MIC against Haemophilus influenzae was 0.125 µg/mL (≈ 0.316 µM).

Take `CC(C)(C)C(O)C(=O)NS(=O)(=O)OC[C@H]1O[C@@H](n2cnc3c(N)ncnc32)[C@H](O)[C@@H]1O` (stereo partly specified): the Ki on Pantothenate synthetase [5] worked out at 300 nM.

On to `Cc1ccccc1CN(Cc1ccc2c(c1)OCCO2)C(=O)c1cnc(N)o1`, for which the IC50 in assay [11] worked out at 7 nM.

Turning to `NCCNS(=O)(=O)c1cccc2cnccc12`, the Ki in [8] came to 49 µM.
